Data reported in patent publication US20090187484A1, “Soil treatments with carbon dioxide” (Cleareso, LLC, priority 2008, published 2009).

Key:
[1] = Solubility and appearance of the aqueous test preparations; format: physicochemical
[2] = test system: Larvae of the root weevil, Diaprepes abbreviatus; assay: Immersion of root weevil larvae in test solutions (mortality, moribund effect); format: in vivo; details: for toxicity judgement for the larvae: 0.1 to 5.0%, test terminated at 24 hours; for black residue across all treatments: control to 5.0%; for Mortality of larvae with individual compounds and formulations: five larvae
Description: Larvae and pupae of the root weevil, Diaprepes abbreviatus, were immersed in a variety of compounds to understand their effect on the activity of this pest.
The criterion for toxicity with these larvae is the lack of nipping behavior and its consequent black residue from blood loss and the lack of spontaneous movement.
Experimental Design. Larvae and pupae were received from the Florida Dept. of Agriculture's rearing program in Gainesville, Fla. Larvae were shipped as 50-day larvae (larvae that will pupate in about 10 days). Both larvae and pupae were held at 27° C. in 12 hour cycles of light and dark in their containers as separate individuals until experimentation began.
In the testing, five larvae or pupae were removed from their rearing cups and placed in a 150 ml glass beaker. In testing the Soy Technologies Manufacturer's Base (SMTB), a 5% solution was mixed in either water or carbonated water by adding 10 ml of SMTB to a 250 ml beaker and then adding water or carbonated water to the 200 ml mark. The solutions were then immediately added to the beaker with the larvae or pupae to cover them. Controls with water or carbonated water alone were also included. There was a single tray of five larvae for each treatment at each time period and a five larvae control for each time period. Larvae were removed and placed on plastic weighing trays after 5,10, 15, 20, 25, and 30 minutes. At the end of 30 minutes all organisms were assessed for mortality. Trays with larvae were left on the bench tip for 24 hours and then another mortality assessment was made.
Concentration Series. With the results from the time series above, larvae were held in different concentrations of STMB for 30 minutes. After 30 minutes, solutions were poured off and the trays wiped dry. Assessments were made at 24 or 48 hours with a few assessments at 72 hours dependent on effects. Treatments were: water or carbonated water as controls, and 0.1, 0.5, 1.0, 2.0, 3.0, 4.0 and 5.0% concentrations in either distilled water or carbonated water. Five larvae were used for each control and treatment. Pupae were not used in this assessment.

## COC(=O)CCC(=O)OC [106-65-0, butanedioic acid, dimethyl ester]
[1]; 0.1% concentration
  solubility of aqueous preparation: soluble
[1]; 1.0% concentration
  solubility of aqueous preparation: just soluble
[1]; 3.0% concentration
  solubility of aqueous preparation: not soluble
[1]; 5.0% concentration
  solubility of aqueous preparation: not soluble
[2]
  toxicity judgement for the larvae: non-toxic
[2]; 24 hours
  black residue across all treatments: all treatments looked just like the control

## COC(=O)CCCCC(=O)OC [627-93-0, Dimethyl hexanedioate]
[1]; 0.1% concentration
  solubility of aqueous preparation: soluble
[1]; 1.0% concentration
  solubility of aqueous preparation: not completely soluble
[1]; 3.0% concentration
  solubility of aqueous preparation: not completely soluble
[1]; 5.0% concentration
  solubility of aqueous preparation: not completely soluble
[2]; 0.1% treatment, 24 hours
  appearance (black residue) compared with control: looked identical
[2]
  toxicity judgement for the larvae: non-toxic
[2]; 5.0% treatment, 24 hours
  black residue: only slightly less black residue than the 3.0% treatment

## COC(=O)CCCC(=O)OC [1119-40-0, pentanedioic acid, dimethyl ester]
[2]; 0.1 to 5.0% treatments, end of 30 minutes immersion
  survival of larvae after 30 minutes: All larvae were alive
[2]; 3 and 5% treatments, 48 hours
  black residue: less black residue than the control

## Polyoxyethylene 10 tridecylether [24938-91-8]
[2]; 3 and 5% treatments, 48 hours
  black residue: less black residue
[2]; concentration 0.1 percent, 24 hours
  Mortality of larvae with individual compounds and formulations: 0
[2]; concentration 0.1 percent, 48 hours
  Mortality of larvae with individual compounds and formulations: 0
[2]; concentration 0.1 percent, 72 hours
  Mortality of larvae with individual compounds and formulations: 0
[2]; concentration 1.0 percent, 24 hours
  Mortality of larvae with individual compounds and formulations: 2
[2]; concentration 1.0 percent, 48 hours
  Mortality of larvae with individual compounds and formulations: 2
[2]; concentration 1.0 percent, 72 hours
  Mortality of larvae with individual compounds and formulations: 2
[2]; concentration 3.0 percent, 24 hours
  Mortality of larvae with individual compounds and formulations: 0
[2]; concentration 3.0 percent, 48 hours
  Mortality of larvae with individual compounds and formulations: 0
[2]; concentration 3.0 percent, 72 hours
  Mortality of larvae with individual compounds and formulations: 0
[2]; concentration 5.0 percent, 24 hours
  Mortality of larvae with individual compounds and formulations: 0
[2]; concentration 5.0 percent, 48 hours
  Mortality of larvae with individual compounds and formulations: 3
[2]; concentration 5.0 percent, 72 hours
  Mortality of larvae with individual compounds and formulations: 3
[2]; 24 hours
  black residue across all treatments: gradation of black residue from control to 5.0 with 5.0 having the least
